Where two headings read alike, the source gives them in different places.
Assays:
[1] = test system: hepatocellular carcinoma (HepG2) cell line; conditions: cited from earlier work
P. falciparum = conditions: cited from earlier work
[2] = test system: Leishmania donovani (amastigotes); conditions: cited from earlier work
T. b. brucei = conditions: ref Duffy et al., 2017; read-out: EC50 T. brucei brucei; cited from earlier work
T. cruzi [3] = test system: T. cruzi; parameters: method as in Duffy et al., 2017; conditions: ref Duffy et al., 2017; cited from earlier work
[4] = Nonspecific cytotoxicity in murine macrophages (MTT); conditions: mouse, J774.1 murine macrophages
Protocol: (§1) Cell viability was then assessed using the 3-(4,5-dimethylthiazol-2-yl)-2,5-diphenyltetrazolium bromide (MTT) colorimetric assay [1]. […] All assays were performed in triplicate [35].

[5] = test system: L. infantum reference strain (MHOM/BR/2002/LPC-RPV); assay: Growth inhibition of L. infantum reference strain promastigotes (resazurin); conditions: for Selectivity Index MΦ/Reference: EC50 J774.1 macrophages versus L. infantum reference strain; for EC50: Leishmania infantum, read-out: EC50 L. infantum Reference
[6] = test system: L. infantum veterinary isolate (MCAN_UY_2015_gPL8); assay: Growth inhibition of L. infantum veterinary isolate promastigotes (resazurin); conditions: for Selectivity Index MΦ/Veterinary: EC50 J774.1 macrophages versus L. infantum veterinary isolate; for EC50: Leishmania infantum, read-out: EC50 L. infantum Veterinary
[7] = test system: Cell division cycle 42 (GTP binding protein, 25kDa); parameters: method as in pubchem.ncbi.nlm.nih.gov; conditions: ref pubchem.ncbi.nlm.nih.gov; cited from earlier work
[8] = molecular target: Neuropeptide S receptor isoform A; parameters: method as in pubchem.ncbi.nlm.nih.gov; conditions: ref pubchem.ncbi.nlm.nih.gov; cited from earlier work
[9] = molecular target: Aldehyde dehydrogenase 1 family, member A1; parameters: method as in pubchem.ncbi.nlm.nih.gov; conditions: ref pubchem.ncbi.nlm.nih.gov; cited from earlier work
[10] = molecular target: Sphingosine-1-phosphate receptor 4; parameters: method as in pubchem.ncbi.nlm.nih.gov; conditions: ref pubchem.ncbi.nlm.nih.gov; cited from earlier work
C. albicans = test system: C. albicans; parameters: method as in pubchem.ncbi.nlm.nih.gov; conditions: ref pubchem.ncbi.nlm.nih.gov; read-out: EC50 C. albicans Growth in the Presence of Fluconazole; cited from earlier work
Hsf1 protein = test system: Hsf1 protein; parameters: method as in pubchem.ncbi.nlm.nih.gov; conditions: ref pubchem.ncbi.nlm.nih.gov; cited from earlier work
Replicative DNA helicase = molecular target: Replicative DNA helicase; parameters: method as in pubchem.ncbi.nlm.nih.gov; conditions: ref pubchem.ncbi.nlm.nih.gov; cited from earlier work
[11] = parameters: method as in data provided by the DNDi program, non-published; conditions: ref data provided by the DNDi program, non-published; cited from earlier work
Candida albicans Biofilm = test system: Candida albicans Biofilm; parameters: method as in Vila and Lopez-Ribot, 2017; conditions: ref Vila and Lopez-Ribot, 2017; read-out: EC50 Candida albicans Biofilm Inhibitor; cited from earlier work
T. cruzi [12] = conditions: Table 3, thiazolidene hydrazines; ref [13],[16],[19],[23],[25]; read-out: EC50 ± SD T. cruzi; cited from earlier work
[13] = test system: L. infantum reference strain (MHOM/BR/2002/LPC-RPV); conditions: cited from earlier work
[14] = test system: L. infantum veterinary isolate (MCAN_UY_2015_gPL8); conditions: cited from earlier work
L. braziliensis = conditions: Table 3, thiazolidene hydrazines; ref [13],[16],[19],[23],[25]; read-out: EC50 ± SD L. brazils; cited from earlier work
[15] = test system: J774.1 murine macrophages; assay: Nonspecific cytotoxicity in murine macrophages (MTT); conditions: Mus musculus, J774.1, read-out: EC50 ± SD MΦ
Protocol: as §1

L. amazonensis = assay: Growth inhibition of L. amazonensis promastigotes (resazurin); conditions: EC50 mammalian cell line/EC50 L. amazonensis

In the case of `c1ccc(-c2nc(NC3CCCCC3)cc(C3CC3)n2)nc1` [MMV021013, N-Cyclohexyl-6-cyclopropyl-2-pyridin-2-ylpyrimidin-4-amine], the EC50 ([1]; ref Peña et al., 2015, read-out: EC50 HepG2 human cell line) is listed as 400 µM, the EC50 (P. falciparum; ref Ballell et al., 2013, read-out: EC50 P. falciparum) is listed as 0.7 µM and the EC50 ([2]; ref Peña et al., 2015) is listed as 0.8 µM. The “activity against the L. donovani form found in a mammalian host” value ([2]; ref [23],[24]) was “significant activity”, the EC50 (T. b. brucei) was 3.5 µM and the EC50 (T. cruzi [3]) was 1.7 µM. For the same molecule, the EC50 at 48 h [4] was greater than 50 µM, the “Selectivity Index MΦ/Reference” value [5] was greater than 125 and the EC50 [5] was 0.4 ± 0.1 µM. For the same molecule, the “Selectivity Index MΦ/Veterinary” value [6] was greater than 167 and the EC50 [6] was 0.3 ± 0.1 µM.
In the case of `COc1cccc(-n2nnnc2S(C)(=O)=O)c1` [MMV272144, 1-(3-Methoxyphenyl)-5-(methylsulfonyl)-1H-tetrazole], the EC50 [7] is given as 15 µM, the EC50 [8] is given as 10 µM and the EC50 [9] is given as 12.5 µM. The EC50 [10] was 1.3 µM, the EC50 (C. albicans) was 1.8 µM and the EC50 (Hsf1 protein) was 6.6 µM. The EC50 (Replicative DNA helicase) was 3.1 µM, the in vivo absorption [11] was “low” and the metabolic stability [11] was “low”. For the same molecule, the EC50 at 48 h [4] was greater than 50 µM, the “Selectivity Index MΦ/Reference” value [5] was greater than 21 and the EC50 [5] was 2.4 ± 0.3 µM. The “Selectivity Index MΦ/Veterinary” value [6] was greater than 42 and the EC50 [6] was 1.2 ± 0.1 µM.
In the case of `Cc1[nH]c2ccccc2c1[C@H](c1cccs1)N1CCN(C)CC1` [MMV688768, 2-Methyl-3-[(R)-(4-methylpiperazin-1-yl)-thiophen-2-ylmethyl]-1H-indole], the EC50 (Candida albicans Biofilm) is given as 3.1 µM, the EC50 ([1]; ref Vila and Lopez-Ribot, 2017, read-out: EC50 HepG2 cell line) is given as 32 µM and the EC50 (P. falciparum; ref Duffy et al., 2017, read-out: EC50 P. falciparum ABS activity) is given as 4.7 µM. For the same molecule, the EC50 (T. b. brucei) was 1.5 µM, the EC50 at 48 h [4] was greater than 50 µM and the “Selectivity Index MΦ/Reference” value [5] was greater than 5. The EC50 [5] was 9.8 ± 0.5 µM, the “Selectivity Index MΦ/Veterinary” value [6] was greater than 7 and the EC50 [6] was 6.8 ± 0.1 µM.
For `CCCCCCCCCCCCCCCCOP(=O)([O-])OCC[N+](C)(C)C` [Miltefosine, reference compound], the EC50 (T. cruzi [12]) is given as 8 ± 2 µM, the EC50 ([13]; Miltefosine comparative data, ref [19], read-out: EC50 L. infantum Reference) is given as 5.3 ± 0.1 µM and the EC50 ([13]; Table 3, Miltefosine control, footnote f, ref [13],[16],[19],[23],[25], read-out: EC50 ± SD Lin–Ref) is given as 5.3 ± 0.1 µM. For the same molecule, the EC50 ([14]; Miltefosine comparative data, ref [19], read-out: EC50 L. infantum Veterinary) was 4.1 ± 0.1 µM, the EC50 ([14]; Table 3, Miltefosine control, footnote f, ref [13],[16],[19],[23],[25], read-out: EC50 ± SD Lin–Vet) was 4.1 ± 0.1 µM and the EC50 (L. braziliensis) was 5 ± 2 µM. The EC50 at 48 h [4] was 50 ± 7 µM, the EC50 [15] was 50 ± 7 µM and the “Selectivity Index MΦ/L. amaz” value (L. amazonensis) was 10. For the same molecule, the “Selectivity Index MΦ/Reference” value [5] was 10, the “Selectivity Index MΦ/Veterinary” value [6] was 12 and the “Selectivity Index MΦ/Lin–Vet” value ([6]; EC50 mammalian cell line/EC50 L. infantum veterinary isolate) was 10.

Source: article PMC8308625, “Preclinical Studies in Anti-Trypanosomatidae Drug Development” (Pharmaceuticals, 2021)
